Results taken from ChEMBL document CHEMBL3400050, “The synthesis and evaluation of sesamol and benzodioxane derivatives as inhibitors of monoamine oxidase” (Bioorg Med Chem Lett, 2015).

Key:
[1] = biological target: T1, Amine oxidase [flavin-containing] A (Homo sapiens, UniProt P21397); assay: Inhibition of human recombinant MAOA using kynuramine substrate assessed as reduction in MAO-generated 4-hydroxyquinoline level by fluorescence spectrophotometry
T1 sequence (P21397 whole entry): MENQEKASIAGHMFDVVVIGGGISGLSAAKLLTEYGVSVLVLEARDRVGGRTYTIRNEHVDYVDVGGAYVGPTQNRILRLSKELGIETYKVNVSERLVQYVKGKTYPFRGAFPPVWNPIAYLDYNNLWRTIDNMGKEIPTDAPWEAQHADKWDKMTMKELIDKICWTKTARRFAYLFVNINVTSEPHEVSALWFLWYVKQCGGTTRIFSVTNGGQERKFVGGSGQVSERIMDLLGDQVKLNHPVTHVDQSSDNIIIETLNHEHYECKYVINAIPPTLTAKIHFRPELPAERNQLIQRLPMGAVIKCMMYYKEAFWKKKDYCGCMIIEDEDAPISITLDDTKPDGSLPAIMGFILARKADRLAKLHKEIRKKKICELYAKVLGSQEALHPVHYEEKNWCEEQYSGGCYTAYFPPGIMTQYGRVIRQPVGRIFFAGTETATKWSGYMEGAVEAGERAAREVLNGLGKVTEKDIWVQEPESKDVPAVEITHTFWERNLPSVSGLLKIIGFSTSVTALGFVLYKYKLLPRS

[2] = biological target: T2, Amine oxidase [flavin-containing] B (Homo sapiens, UniProt P27338); assay: Inhibition of human recombinant MAOB using kynuramine substrate assessed as reduction in MAO-generated 4-hydroxyquinoline level by fluorescence spectrophotometry
T2 sequence (P27338 whole entry): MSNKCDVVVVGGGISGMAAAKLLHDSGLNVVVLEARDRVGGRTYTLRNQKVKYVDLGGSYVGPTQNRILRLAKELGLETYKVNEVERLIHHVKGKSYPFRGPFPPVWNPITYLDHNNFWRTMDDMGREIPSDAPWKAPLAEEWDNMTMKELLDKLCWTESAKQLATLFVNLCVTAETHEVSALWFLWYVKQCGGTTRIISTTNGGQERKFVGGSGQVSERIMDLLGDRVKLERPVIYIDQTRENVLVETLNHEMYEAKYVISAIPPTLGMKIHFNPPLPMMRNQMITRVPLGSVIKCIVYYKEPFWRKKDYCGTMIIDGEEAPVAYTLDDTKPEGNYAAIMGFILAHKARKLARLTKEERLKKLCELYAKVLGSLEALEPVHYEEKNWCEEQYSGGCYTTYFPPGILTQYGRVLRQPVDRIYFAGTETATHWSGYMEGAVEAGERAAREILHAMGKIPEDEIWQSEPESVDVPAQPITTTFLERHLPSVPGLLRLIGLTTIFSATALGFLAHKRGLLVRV

Homo sapiens = species: Homo sapiens; assay: Selectivity index, ratio of IC50 for human recombinant MAOA to IC50 for human recombinant MAOB
[3] = biological target: T1, Amine oxidase [flavin-containing] A; assay: Inhibition of human recombinant MAOA at 100 uM using kynuramine substrate assessed as reduction in MAO-generated 4-hydroxyquinoline level by fluorescence spectrophotometry
[4] = biological target: T2, Amine oxidase [flavin-containing] B; assay: (§1) Reversible inhibition of human recombinant MAOB pre-incubated for 15 mins at 4 times IC50 level using kynuramine substrate assessed as enzyme catalytic activity by measuring 4-hydroxyquinoline level after 20 mins by fluorescence spectrophotometry; set-up: scale not given: the % may be the effect or the level left
[5] = biological target: T2, Amine oxidase [flavin-containing] B; assay: as §1, with “subsequently dialysed for 24 hrs followed by two fold dilution with” for “using”; set-up: scale not given: the % may be the effect or the level left
[6] = biological target: T2, Amine oxidase [flavin-containing] B; assay: Competitive inhibition of human recombinant MAOB using kynuramine substrate assessed as reduction in MAO-generated 4-hydroxyquinoline level by Lineweaver-Burk plot

IC50 [1] [µM] | IC50 [2] [µM] | Ratio IC50 (Homo sapiens) | inhibition (INH) [3] | Activity [4] [%] | Activity [5] [%] | Ki [6] [µM] | Structure (SMILES)
69.4 | 0.109 | 637 | – | – | – | – | c1ccc(OCCOc2ccc3c(c2)OCCO3)cc1
36 | 0.168 | 215 | – | – | – | – | c1ccc(COc2ccc3c(c2)OCCO3)cc1
27.8 | 0.048 | 579 | – | – | – | – | c1ccc(CCOc2ccc3c(c2)OCCO3)cc1
87.7 | 3.31 | 26 | – | – | – | – | c1ccc(CCOc2ccc3c(c2)OCO3)cc1
– | 0.513 | > 195 | Not Active | – | – | – | c1ccc(COc2ccc3c(c2)OCO3)cc1
70.4 | 0.947 | 74 | – | – | – | – | c1ccc(CCCOc2ccc3c(c2)OCCO3)cc1
13.2 | 0.057 | 232 | – | – | – | – | Clc1cccc(COc2ccc3c(c2)OCCO3)c1
77.1 | 7.29 | 11 | – | – | – | – | c1ccc(CCCOc2ccc3c(c2)OCO3)cc1
16.9 | 0.045 | 375 | – | 21 | 87 | 0.041 | Brc1cccc(COc2ccc3c(c2)OCCO3)c1

Continued, molecule first:

Structure (SMILES) | IC50 [1] [µM] | IC50 [2] [µM] | Ratio IC50 (Homo sapiens) | inhibition (INH) [3] | Activity [4] [%] | Activity [5] [%] | Ki [6] [µM]
Brc1ccc(OCCOc2ccc3c(c2)OCCO3)cc1 | – | 0.941 | > 106 | Not Active | – | – | –
c1ccc(OCCOc2ccc3c(c2)OCO3)cc1 | – | 1.14 | > 88 | Not Active | – | – | –
Clc1ccc(OCCOc2ccc3c(c2)OCCO3)cc1 | – | 0.348 | > 287 | Not Active | – | – | –
Clc1ccc(OCCOc2ccc3c(c2)OCO3)cc1 | – | 1.69 | > 59 | Not Active | – | – | –
Clc1cccc(COc2ccc3c(c2)OCO3)c1 | 51.8 | 0.248 | 209 | – | – | – | –
Brc1ccc(OCCOc2ccc3c(c2)OCO3)cc1 | – | 7.07 | > 14 | Not Active | – | – | –
Brc1cccc(COc2ccc3c(c2)OCO3)c1 | 38.4 | 0.164 | 234 | – | – | – | –
